Assay results: PubChem BioAssay AID192 (DTP/NCI, 2004)
“And” between values parts separate entries of the source, which are not always exact repeats. Equal values may be shown once. Toxic doses and inconclusive results are not listed. Peptide text beside a SMILES is read from it. * marks the point of attachment. Cbz = O=C(OCc1ccccc1)*

Tested on: BDF1 mice, B16 melanoma ip, median survival T/C
Experiment: NCI In Vivo Anticancer Drug Screen. Data for tumor model B16 Melanoma (intraperitoneal) in B6D2F1 (BDF1) mice
Conditions: endpoint: median survival time, higher = longer survival
In short: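 Survival or tumor size is measured after treatment of tumor-bearing mice and normalised to the vehicle-treated control group.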

[1] = dose: 6.25 mg/kg/injection, schedule: Q01DX009 (ip), vehicle: Klucel (hydroxypropylcellulose) (HPC)
[2] = dose: 12.5 mg/kg/injection, schedule: Q01DX009 (ip), vehicle: Klucel (hydroxypropylcellulose) (HPC)
[3] = dose: 25.0 mg/kg/injection, schedule: Q01DX009 (ip), vehicle: Klucel (hydroxypropylcellulose) (HPC)
[4] = dose: 50.0 mg/kg/injection, schedule: Q01DX009 (ip), vehicle: Klucel (hydroxypropylcellulose) (HPC)
[5] = dose: 5.0 mg/kg/injection, schedule: Q01DX009 (ip), vehicle: saline with Tween-80
[6] = dose: 10.0 mg/kg/injection, schedule: Q01DX009 (ip), vehicle: saline with Tween-80
[7] = dose: 20.0 mg/kg/injection, schedule: Q01DX009 (ip), vehicle: saline with Tween-80
[8] = dose: 100.0 mg/kg/injection, schedule: Q01DX009 (ip), vehicle: Klucel (hydroxypropylcellulose) (HPC)
[9] = dose: 200.0 mg/kg/injection, schedule: Q01DX009 (ip), vehicle: Klucel (hydroxypropylcellulose) (HPC)
[10] = dose: 100.0 mg/kg/injection, schedule: Q04DX003 (ip), vehicle: Klucel (hydroxypropylcellulose) (HPC)
[11] = dose: 200.0 mg/kg/injection, schedule: Q04DX003 (ip), vehicle: Klucel (hydroxypropylcellulose) (HPC)
[12] = dose: 400.0 mg/kg/injection, schedule: Q04DX003 (ip), vehicle: Klucel (hydroxypropylcellulose) (HPC)
[13] = dose: 100.0 mg/kg/injection, schedule: Q01DX009 (ip), vehicle: saline with Tween-80
[14] = dose: 200.0 mg/kg/injection, schedule: Q01DX009 (ip), vehicle: saline with Tween-80
[15] = dose: 50.0 mg/kg/injection, schedule: Q01DX009 (ip), vehicle: saline with Tween-80

## CN(C)CC/C=C1\c2ccccc2Sc2ccc(C(F)(F)F)cc21
dose: 0.19 mg/kg/injection, schedule: Q01DX009 (ip), vehicle: saline
  T/C: 105 % of control
dose: 0.39 mg/kg/injection, schedule: Q01DX009 (ip), vehicle: saline
  T/C: 122 % of control
dose: 0.78 mg/kg/injection, schedule: Q01DX009 (ip), vehicle: saline
  T/C: 111 % of control
dose: 1.56 mg/kg/injection, schedule: Q01DX009 (ip), vehicle: saline
  T/C: 108 % of control
dose: 3.12 mg/kg/injection, schedule: Q01DX009 (ip), vehicle: saline
  T/C: 105 % of control
dose: 6.12 mg/kg/injection, schedule: Q01DX009 (ip), vehicle: saline
  T/C: 90 % of control

## COc1ccc2c(c1)C13CCCCC1C(C2)N(CC1(c2ccccc2)CC1)CC3 (stereo unspecified)
dose: 4.1 mg/kg/injection, schedule: Q01DX009 (ip), vehicle: Klucel (hydroxypropylcellulose) (HPC)
  T/C: 93 % of control
[1]
  T/C: 93 % of control
dose: 9.3 mg/kg/injection, schedule: Q01DX009 (ip), vehicle: Klucel (hydroxypropylcellulose) (HPC)
  T/C: 93 % of control and 109 % of control
[2]
  T/C: 119 % of control
[3]
  T/C: 121 % of control
[4]
  T/C: 97 % of control

## CCCCCCCCCCCCCCCCCN
[1]
  T/C: 103 % of control
[2]
  T/C: 100 % of control
[3]
  T/C: 93 % of control

## O=Nc1c(N=O)c(N=O)c(N=O)c(N=O)c1N=O
dose: 1.25 mg/kg/injection, schedule: Q01DX009 (ip), vehicle: saline with Tween-80
  T/C: 108 % of control
dose: 2.5 mg/kg/injection, schedule: Q01DX009 (ip), vehicle: saline with Tween-80
  T/C: 105 % of control
[5]
  T/C: 88 % of control and 100 % of control
[6]
  T/C: 104 % of control
[7]
  T/C: 87 % of control

## [CH3][Pb]([CH3])([CH3])[Cl]
dose: 0.75 mg/kg/injection, schedule: Q01DX009 (ip), vehicle: saline
  T/C: 117 % of control
dose: 1.5 mg/kg/injection, schedule: Q01DX009 (ip), vehicle: saline
  T/C: 103 % of control

## CC(=O)OC1c2ccccc2C(=O)C1(OC(C)=O)c1ccccc1 (stereo unspecified)
[4]
  T/C: 102 % of control
[8]
  T/C: 94 % of control
[9]
  T/C: 102 % of control

## N#CCCCc1ccccc1
[4]
  T/C: 112 % of control
[8]
  T/C: 106 % of control

## CCOC(=O)NC(C(=O)OC)C(=O)OC
[10]
  T/C: 95 % of control
[9]
  T/C: 93 % of control
[11]
  T/C: 97 % of control
dose: 400.0 mg/kg/injection, schedule: Q01DX009 (ip), vehicle: Klucel (hydroxypropylcellulose) (HPC)
  T/C: 87 % of control
[12]
  T/C: 90 % of control

## COc1cc2ccncc2cc1O
dose: 6.25 mg/kg/injection, schedule: Q01DX009 (ip), vehicle: water
  T/C: 104 % of control
dose: 12.5 mg/kg/injection, schedule: Q01DX009 (ip), vehicle: water
  T/C: 95 % of control
dose: 25.0 mg/kg/injection, schedule: Q01DX009 (ip), vehicle: water
  T/C: 109 % of control
dose: 50.0 mg/kg/injection, schedule: Q01DX009 (ip), vehicle: water
  T/C: 98 % of control

## Nc1ccccc1.[C-]#[O+].[C-]#[O+].[C-]#[O+].[C-]#[O+].[C-]#[O+].[Cr]
dose: 2.5 mg/kg/injection, schedule: Q01DX009 (ip), vehicle: saline
  T/C: 95 % of control
dose: 5.0 mg/kg/injection, schedule: Q01DX009 (ip), vehicle: saline
  T/C: 114 % of control
dose: 10.0 mg/kg/injection, schedule: Q01DX009 (ip), vehicle: saline
  T/C: 108 % of control

## CCCCNS(=O)(=O)c1ccc(OC)c(N)c1
[10]
  T/C: 95 % of control
[11]
  T/C: 95 % of control
[12]
  T/C: 111 % of control

## Cc1noc2c1ncc[n+]2[O-]
[5]
  T/C: 108 % of control
[6]
  T/C: 119 % of control
[7]
  T/C: 116 % of control

## ClCCN=Cc1ccc(Cl)cc1
[13]
  T/C: 98 % of control
[14]
  T/C: 95 % of control
dose: 400.0 mg/kg/injection, schedule: Q01DX009 (ip), vehicle: saline with Tween-80
  T/C: 93 % of control

## CC1C2CC3C(OC(=O)C13)C2I (stereo unspecified)
[13]
  T/C: 107 % of control
[14]
  T/C: 89 % of control

## O=C(CC(O)(C(F)(F)F)C(F)(F)F)CC(O)(C(F)(F)F)C(F)(F)F
dose: 1.25 mg/kg/injection, schedule: Q04DX003 (ip), vehicle: saline
  T/C: 116 % of control
dose: 2.5 mg/kg/injection, schedule: Q04DX003 (ip), vehicle: saline
  T/C: 122 % of control and 116 % of control

## COC(=O)C1CCCN1C(=O)C(CCCCNC(=O)OCc1ccccc1)NC(=O)OCc1ccccc1 (stereo unspecified) (Cbz-Lys(Cbz)-Pro-OMe; configuration not given here)
dose: 25.0 mg/kg/injection, schedule: Q01DX009 (ip), vehicle: saline with Tween-80
  T/C: 94 % of control
[15]
  T/C: 98 % of control
[13]
  T/C: 112 % of control
[14]
  T/C: 108 % of control

## COc1ccc2c(c1OC(C)=O)-c1cc(O)cc3c1C(C2)N(C(=O)CN(CCCl)CCCl)CC3 (stereo unspecified)
dose: 3.12 mg/kg/injection, schedule: Q01DX009 (ip), vehicle: saline with Tween-80
  T/C: 168 % of control
dose: 6.25 mg/kg/injection, schedule: Q01DX009 (ip), vehicle: saline with Tween-80
  T/C: 187 % of control
dose: 6.25 mg/kg/injection, schedule: Q04DX003 (ip), vehicle: DMSO
  T/C: 103 % of control
dose: 12.5 mg/kg/injection, schedule: Q01DX009 (ip), vehicle: saline with Tween-80
  T/C: 197 % of control
dose: 12.5 mg/kg/injection, schedule: Q04DX003 (ip), vehicle: DMSO
  T/C: 121 % of control
dose: 25.0 mg/kg/injection, schedule: Q04DX003 (ip), vehicle: DMSO
  T/C: 110 % of control
dose: 100.0 mg/kg/injection, schedule: Q04DX003 (ip), vehicle: DMSO
  T/C: 112 % of control

## CC(=O)Nc1cccc([N+](=O)[O-])c1
[15]
  T/C: 109 % of control
[13]
  T/C: 97 % of control
[14]
  T/C: 97 % of control

## CCOC(=O)N(Cc1ccccc1)C1CC1
dose: 0.78 mg/kg/injection, schedule: Q04DX003 (ip), vehicle: saline
  T/C: 101 % of control
dose: 1.56 mg/kg/injection, schedule: Q04DX003 (ip), vehicle: saline
  T/C: 93 % of control
dose: 3.12 mg/kg/injection, schedule: Q04DX003 (ip), vehicle: saline
  T/C: 97 % of control
dose: 6.25 mg/kg/injection, schedule: Q04DX003 (ip), vehicle: saline
  T/C: 101 % of control
dose: 12.5 mg/kg/injection, schedule: Q04DX003 (ip), vehicle: saline
  T/C: 105 % of control
dose: 25.0 mg/kg/injection, schedule: Q01DX009 (ip), vehicle: saline
  T/C: 105 % of control
dose: 50.0 mg/kg/injection, schedule: Q01DX009 (ip), vehicle: saline
  T/C: 100 % of control
dose: 100.0 mg/kg/injection, schedule: Q01DX009 (ip), vehicle: saline
  T/C: 94 % of control
dose: 200.0 mg/kg/injection, schedule: Q01DX009 (ip), vehicle: saline
  T/C: 102 % of control
dose: 400.0 mg/kg/injection, schedule: Q01DX009 (ip), vehicle: saline
  T/C: 107 % of control

## CCC[CH2][Sn]([CH2]CCC)[CH2]CCC.CCC[CH2][Sn]([CH2]CCC)[CH2]CCC
dose: 5.0 mg/kg/injection, schedule: Q01DX009 (ip), vehicle: Klucel (hydroxypropylcellulose) (HPC)
  T/C: 109 % of control

## O=C1NC(c2ccccc2)(c2ccccc2)C(=O)N1CCN(CCCl)CCCl
dose: 1.3 mg/kg/injection, schedule: Q01DX009 (ip), vehicle: Klucel (hydroxypropylcellulose) (HPC)
  T/C: 93 % of control
dose: 2.0 mg/kg/injection, schedule: Q01DX009 (ip), vehicle: Klucel (hydroxypropylcellulose) (HPC)
  T/C: 105 % of control
dose: 3.12 mg/kg/injection, schedule: Q01DX009 (ip), vehicle: Klucel (hydroxypropylcellulose) (HPC)
  T/C: 160 % of control
[1]
  T/C: 161 % of control
[3]
  T/C: 103 % of control
[4]
  T/C: 153 % of control

## CC(C)(C)C1CCC(C(=O)O)CC1 (stereo unspecified)
[15]
  T/C: 95 % of control
[13]
  T/C: 90 % of control
[14]
  T/C: 90 % of control

## C=C(NC(=O)C(=C)NC(=O)c1csc(C2=NC3c4csc(n4)C4NC(=O)c5csc(n5)C(C(C)(O)C(C)O)NC(=O)C5CSC(=N5)/C(=C/C)NC(=O)C(C(C)O)NC(=O)c5csc(n5)C3(CC2)NC(=O)C(C)NC(=O)C(=C)NC(=O)C(C)NC(=O)C(C(C)CC)NC2C=Cc3c(C(C)O)cc(nc3C2O)C(=O)OC4C)n1)C(N)=O (stereo unspecified)
[4]
  T/C: 106 % of control
[8]
  T/C: 109 % of control
[9]
  T/C: 112 % of control

## CCNNC(=O)[C@@H]1[C@H](c2cc(OC)c(OC)c(OC)c2)c2cc3c(cc2[C@H](O)[C@H]1CO)OCO3
[15]
  T/C: 94 % of control
[13]
  T/C: 86 % of control
